Laboratory results taken from PubChem BioAssay (NCI).
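Briefly, cells in 96-well plates were exposed to five compound concentrations for 48 h, and endpoints were estimated by linear interpolation. TGI: concentration producing complete growth inhibition.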

Experiments:
Experiment in all cases: growth of human tumour cells (NCI), 48 h
KM12 colon = tested on: KM12 colon
A498 renal = tested on: A498 renal
COLO 205 colon = tested on: COLO 205 colon
SNB-19 CNS = tested on: SNB-19 CNS
MDA-N = tested on: MDA-N
HOP-92 NSCLC = tested on: HOP-92 NSCLC
OVCAR-4 ovarian = tested on: OVCAR-4 ovarian
U251 CNS = tested on: U251 CNS
SF-295 CNS = tested on: SF-295 CNS
EKVX NSCLC = tested on: EKVX NSCLC
SK-MEL-5 melanoma = tested on: SK-MEL-5 melanoma
UO-31 renal = tested on: UO-31 renal
UACC-257 melanoma = tested on: UACC-257 melanoma
CAKI-1 renal = tested on: CAKI-1 renal
DU-145 prostate = tested on: DU-145 prostate
HCC-2998 colon = tested on: HCC-2998 colon
T-47D breast = tested on: T-47D breast
MALME-3M melanoma = tested on: MALME-3M melanoma

| SMILES | TGI (KM12 colon) [µM] | TGI (A498 renal) [µM] | TGI (COLO 205 colon) [µM] | TGI (SNB-19 CNS) [µM] | TGI (MDA-N) [µM] | TGI (HOP-92 NSCLC) [µM] | TGI (OVCAR-4 ovarian) [µM] | TGI (U251 CNS) [µM] | TGI (SF-295 CNS) [µM] | TGI (EKVX NSCLC) [µM] | TGI (SK-MEL-5 melanoma) [µM] | TGI (UO-31 renal) [µM] | TGI (UACC-257 melanoma) [µM] | TGI (CAKI-1 renal) [µM] | TGI (DU-145 prostate) [µM] | TGI (HCC-2998 colon) [µM] | TGI (T-47D breast) [µM] | TGI (MALME-3M melanoma) [µM] |
| --- | --- | --- | --- | --- | --- | --- | --- | --- | --- | --- | --- | --- | --- | --- | --- | --- | --- | --- |
| C[N+]1(CCC[N+]2(C)CC3C4C=CC(CC4)C3C2)CCOCC1 (configuration not stated) | > 100 | > 100 | > 100 | > 100 | > 100 | > 100 | > 100 | > 100 | > 100 | > 100 | > 100 | > 100 | > 100 | > 100 | > 100 | > 100 | > 100 | > 100 |
| CC(C)(C)OC(=O)Cn1ncn(NC(=O)Cc2ccccc2)c1=O | > 10 | > 10 | > 10 | > 10 | > 10 | > 10 | > 10 | > 10 | > 10 | > 10 | > 10 | > 10 | > 10 | > 10 | > 10 | > 10 | > 10 | > 10 |
| CC(C)(C)C1=CC(=C2C=Cc3ccccc3O2)C=C(C(C)(C)C)C1=O | 9.7 | 16.4 | 4.71 | > 50.7 | 7.39 | > 51 | 16.8 | 7.51 | 18.9 | 43.6 | 13.9 | 21.9 | 13.2 | 29.6 | 20.8 | 2.99 | 9.97 | 14.5 |
| CCN(CC)c1ccc2cc(C(=O)Nc3ccc(C)cc3)c(=N)oc2c1 | > 100 | > 100 | > 100 | > 100 | > 100 | > 100 | > 100 | > 100 |  | > 100 | > 100 |  | > 100 | > 100 | > 100 | > 100 | > 100 | > 100 |
| C=CCc1cc(C(Cc2ccccc2)NC(C)C)cc(OCc2ccccc2)c1OCc1ccccc1 (configuration not stated) | 40.2 | 29.2 | 31.3 | 28.8 | 25.8 | 25.3 | 33.1 | 27.7 | 31.6 | 30 | 30.6 | 21.7 | 34.4 | 29.5 | 29.7 | 26.7 | 29.2 | 28.9 |
| CC(C)/C(=N\[N+](C)(C)C)c1ccccc1 | > 100 | > 100 | > 100 | > 100 | > 100 | > 100 | > 100 | > 100 | > 100 | > 100 | > 100 | > 100 | > 100 | > 100 | > 100 | > 100 | > 100 | > 100 |
| CC1CN=C(c2cccc(-c3nc(-c4cccc(C5=NCC(C)N5)c4)nc(N(C)C)n3)c2)N1 (configuration not stated) | 7.72 | 5.99 | 2.5 | 5.27 | 4.08 | 20.3 | 2.72 | 2.13 | 14.3 | 8.64 | 7.93 | 13.4 | 11 | 32.2 | 7.14 | 2.39 | 15.1 | 14.8 |
| Cc1c(N2C(=O)/C(=C/c3ccc(N(CCC#N)CCC#N)cc3)N=C2c2ccccc2)c(=O)n(-c2ccccc2)n1C | > 100 | > 100 | > 100 | > 100 | > 100 | > 100 | > 100 | > 100 | > 100 | > 100 | > 100 | > 100 | > 100 | > 100 | > 100 | > 100 | > 100 | > 100 |
| CSc1c(CC(=O)Nc2ccc(Cl)cc2)n(Cc2ccccc2)c2ccccc12 | > 100 | 25.9 | > 100 | > 100 | > 100 | 42.8 | 35.5 | 25 | > 100 | > 100 | > 100 | > 100 | > 100 | > 100 | > 100 | 88 | > 100 | > 100 |
| COc1ccc(-n2c(=O)n(-c3ccccc3)c(=O)n2-c2ccc(OC)cc2)cc1 | > 100 | > 100 | > 100 | > 100 | > 100 | > 100 | > 100 | > 100 | > 100 | > 100 | > 100 | > 100 | > 100 | 7.59 | > 100 | > 100 | > 100 | > 100 |
| Cc1cccc2c(N)c3cccc(C(=O)NCC[N+]4(Cc5ccc([N+](=O)[O-])cc5)CCOCC4)c3nc12 | > 100 | > 100 | > 100 | > 100 | > 100 | 71.8 | > 100 | > 100 | > 100 | > 100 | > 100 | > 100 | > 100 | > 100 | > 100 | 60.5 | 98.3 | > 100 |
| CC[P+]1(c2ccccc2)[C@@H](C)CC[C@@H]1C | > 100 | > 100 | > 100 | > 100 | > 100 | > 100 | > 100 | > 100 | > 100 | > 100 | > 100 | > 100 | > 100 | > 100 | > 100 | > 100 | > 100 | > 100 |
| O=[N+]([O-])/C(C(Cl)=C(Cl)Cl)=C(\N1CCCCC1)n1nnc2ccccc21 | > 88 | 39.1 | 34.4 | 40.3 | 44.1 | 39.6 | > 100 | 31.1 | 33.3 | 26.4 | 32.7 | 34.3 | 37.2 | > 55.9 | 37.7 | 26.2 | > 100 | 39.6 |
